Measured values: ChEMBL document CHEMBL5214885, “PROTACs to address the challenges facing small molecule inhibitors” (Eur J Med Chem, 2021)

Columns and labels:
[1] = molecular target: Protein cereblon/Bcl-2-like protein 1 (Homo sapiens, UniProt Q07817+Q96SW2); assay: PROTAC activity at CRBN/BCL-XL in human MOLT-4 cells assessed as induction of BCL-XL degradation incubated for 16 hrs by Western blot analysis; format: cell-based
[2] = molecular target: Microtubule-associated protein tau (Homo sapiens, UniProt P10636); assay: Binding affinity to N-terminal His-tagged recombinant human Tau40 expressed in Escherichia coli Rosetta (DE3) assessed as dissociation constant incubated for 0.5 hrs by fluorescence polarization assay
Sequence of Microtubule-associated protein tau (P10636 whole entry): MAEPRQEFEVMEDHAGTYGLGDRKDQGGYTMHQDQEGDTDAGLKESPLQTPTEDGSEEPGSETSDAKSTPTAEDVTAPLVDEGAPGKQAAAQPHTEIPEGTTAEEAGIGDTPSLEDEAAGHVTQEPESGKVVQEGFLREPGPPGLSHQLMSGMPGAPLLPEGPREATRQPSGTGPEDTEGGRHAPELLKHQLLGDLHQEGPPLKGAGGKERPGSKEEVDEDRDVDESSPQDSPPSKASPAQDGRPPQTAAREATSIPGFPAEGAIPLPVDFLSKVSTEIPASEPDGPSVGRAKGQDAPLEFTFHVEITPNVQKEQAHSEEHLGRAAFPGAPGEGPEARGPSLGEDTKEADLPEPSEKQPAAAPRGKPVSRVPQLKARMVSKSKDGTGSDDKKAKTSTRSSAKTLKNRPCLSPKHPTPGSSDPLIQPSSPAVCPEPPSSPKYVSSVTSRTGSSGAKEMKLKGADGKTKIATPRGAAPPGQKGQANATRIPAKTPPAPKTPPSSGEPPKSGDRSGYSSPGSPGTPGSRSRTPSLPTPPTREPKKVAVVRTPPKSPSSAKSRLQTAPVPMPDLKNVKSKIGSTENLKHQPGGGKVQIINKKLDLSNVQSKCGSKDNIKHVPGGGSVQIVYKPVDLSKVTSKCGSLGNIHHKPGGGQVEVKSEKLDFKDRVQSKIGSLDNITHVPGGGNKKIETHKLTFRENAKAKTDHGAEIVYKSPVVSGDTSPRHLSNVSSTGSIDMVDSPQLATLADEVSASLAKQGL

Sequence of Protein cereblon/Bcl-2-like protein 1 (Q07817 whole entry): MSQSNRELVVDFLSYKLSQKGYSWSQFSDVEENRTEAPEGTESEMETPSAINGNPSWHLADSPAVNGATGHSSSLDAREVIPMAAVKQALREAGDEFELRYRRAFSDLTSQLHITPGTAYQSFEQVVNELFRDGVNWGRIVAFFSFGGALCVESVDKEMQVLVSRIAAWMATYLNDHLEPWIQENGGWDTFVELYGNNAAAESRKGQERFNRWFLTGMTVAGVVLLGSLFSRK
Sequence of Protein cereblon/Bcl-2-like protein 1 (Q96SW2 whole entry): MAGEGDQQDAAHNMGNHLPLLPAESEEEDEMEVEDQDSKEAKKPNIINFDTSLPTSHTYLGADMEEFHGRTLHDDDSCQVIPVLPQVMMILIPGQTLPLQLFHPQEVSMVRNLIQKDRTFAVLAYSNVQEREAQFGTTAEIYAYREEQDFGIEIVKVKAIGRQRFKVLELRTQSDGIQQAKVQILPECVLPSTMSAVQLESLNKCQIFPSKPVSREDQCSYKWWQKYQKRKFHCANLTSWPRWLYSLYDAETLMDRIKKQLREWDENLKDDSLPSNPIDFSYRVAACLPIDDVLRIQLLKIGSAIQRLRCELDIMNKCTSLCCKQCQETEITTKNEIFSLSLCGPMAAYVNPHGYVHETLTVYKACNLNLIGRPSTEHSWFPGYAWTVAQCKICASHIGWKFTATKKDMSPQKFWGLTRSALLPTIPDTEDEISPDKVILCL

EC50 [1] | Kd [2] | Structure (SMILES)
0.05 µM | – | O=C1CCC(N2C(=O)c3cccc(NCCOCCOCc4cn(CCCC(=O)N5CCN(CC#Cc6ccc(OCCCc7sc(N8CCc9cccc(C(=O)Nc%10nc%11ccccc%11s%10)c9C8)nc7C(=O)O)c(F)c6)CC5)nn4)c3C2=O)C(=O)N1 (configuration not stated)
– | 0.394 µM | CC[C@H](C)[C@H](NC(=O)[C@H](Cc1ccc(O)cc1)NC(=O)[C@@H]1CCCN1C(=O)[C@H](C)NC(=O)[C@H](CC(C)C)NC(=O)[C@H](C)NC(=O)[C@H](CO)NC(=O)CNC(=O)[C@H](CO)NC(=O)CNC(=O)CNC(=O)[C@H](CCC(N)=O)NC(=O)[C@H](CCC(=O)O)NC(=O)[C@H](CC(=O)O)NC(=O)[C@H](C)NC(=O)[C@@H](NC(=O)[C@H](C)NC(=O)[C@H](CC(=O)O)NC(=O)[C@H](CCC(N)=O)NC(=O)[C@H](Cc1ccc(O)cc1)NC(=O)[C@H](CCC(N)=O)NC(=O)[C@H](CCC(N)=O)NC(=O)[C@@H](N)Cc1ccc(O)cc1)[C@@H](C)O)C(=O)N1CCC[C@H]1C(=O)N[C@H](CCCNC(=N)N)C(=O)N[C@H](CCCNC(=N)N)C(=O)N[C@H](CCCNC(=N)N)C(=O)N[C@H](CCCNC(=N)N)C(=O)N[C@H](CCCNC(=N)N)C(=O)N[C@H](CCCNC(=N)N)C(=O)N[C@H](CCCNC(=N)N)C(=O)N[C@H](CCCNC(=N)N)C(=O)O
